Source: patent publication US10189838B2, “Aza-oxo-indoles for the treatment and prophylaxis of respiratory syncytial virus infection” (Hoffmann-La Roche Inc., priority 2013, dated 2019)

Key:
RSV Long strain = experiment: Viral cytopathic effect (CPE) assay, RSV Long strain; assay type: cell-based, Respiratory Syncytial Virus; conditions: human respiratory syncytial virus, 144 h, cell viability after 6 days (Cell Counting kit-8)
In short: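 Cells in DMEM with 10% FBS infected next day with RSV Long (A subtype) at a dose giving ~80–90% CPE after 6 days, alongside half-log compound dilutions. Viability at day 6 by CCK-8, absorbance 450 nm referenced to 630 nm; EC50 is concentration giving 50% of maximal protection.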

[1] = Single dose PK in male ICR mouse (IV and PO); assay type: in vivo; conditions: male ICR mice; for AUC(0-t) / bioavailability: mouse, plasma; for bioavailability: read-out: F (bioavailability)
Procedure: The single dose PK in male ICR mouse was performed to assess their pharmacokinetic properties. Two groups of animals were dosed via either bolus intravenous (IV) or oral gavage (PO) of the respective compound. The animals for oral administration were fasted overnight prior to dosing and food was resumed 4 hours postdose. Blood samples (approximately 400 μL) were collected via cardiac puncture after euthanasia by carbon dioxide inhalation at 2 minutes, 5 minutes, 15 minutes, 30 minutes, 1 hour, 2 hours, 4 hours, 6 hours, 8 hours, and 24 hours postdose for IV group, and at 5 minutes, 15 minutes, 30 minutes, 1 hour, 2 hours, 4 hours, 6 hours, 8 hours, and 24 hours postdose for PO group. Blood samples were placed into tubes containing sodium heparin and centrifuged at 8000 rpm for 6 minutes at 4° C. to separate plasma from the samples.
Following centrifugation, the resulting plasma was transferred to clean tubes for bioanalysis on LC/MS/MS. The pharmacokinetic parameters were calculated using non-compartmental module of WinNonlin® Professional 5.2.

RSV infection = conditions: selected infants, intramuscularly 15 mg/kg once a month for the RSV season; cited from earlier work

Molecule: CS(=O)(=O)CCn1c(CN2C(=O)C3(CC3)c3ccncc32)nc2cc(Cl)ccc21 [Example 34-1, 1′-({5-Chloro-1-[2-(methylsulfonyl)ethyl]-1H-benzimidazol-2-yl}methyl)spiro[cyclopropane-1,3′-pyrrolo[2,3-c]pyridin]-2′(1′H)-one]
- EC50 (RSV Long strain): 0.012 µM
- CLz ([1]; IV 1.45 mg/kg): 3.89 L/h/kg
- t1/2z ([1]; IV 1.45 mg/kg): 10.2 h
- t1/2z ([1]; PO 25 mg/kg): 2.98 h
- AUC(0-t) ([1]; IV 1.45 mg/kg): 0.373 µg·h/mL
- AUC(0-t) ([1]; PO 25 mg/kg): 3.28 µg·h/mL
- bioavailability ([1]; PO 25 mg/kg): 51%

Molecule: CS(=O)(=O)CCn1c(CN2C(=O)C3(CC3)c3ccncc32)cc2cc(Cl)cnc21 [Example 2-6, 1′-({5-Chloro-1-[2-(methylsulfonyl)ethyl]-1H-pyrrolo[2,3-b]pyridin-2-yl}methyl)spiro[cyclopropane-1,3′-pyrrolo[2,3-c]pyridin]-2′(1′H)-one]
- EC50 (RSV Long strain): 0.0273 µM
- CLz ([1]; IV 5 mg/kg): 1.42 L/h/kg
- t1/2z ([1]; IV 5 mg/kg): 0.724 h
- F (bioavailability) ([1]; PO 25 mg/kg): 58.3%
- t1/2z ([1]; PO 25 mg/kg): 0.701 h
- AUC(0-t) ([1]; IV 5 mg/kg): 3.51 µg·h/mL
- AUC(0-t) ([1]; PO 25 mg/kg): 10.2 µg·h/mL

Molecule: CS(=O)(=O)CCn1c(CN2C(=O)C3(CC3)c3ccncc32)nc2cc(Cl)cc(F)c21 [Example 37-1, 1′-({5-Chloro-7-fluoro-1-[2-(methylsulfonyl)ethyl]-1H-benzimidazol-2-yl}methyl)spiro[cyclopropane-1,3′-pyrrolo[2,3-c]pyridin]-2′(1′H)-one]
- EC50 (RSV Long strain): 0.009 µM
- CLz ([1]; IV 2 mg/kg): 2.66 L/h/kg
- t1/2z ([1]; IV 2 mg/kg): 0.976 h
- t1/2z ([1]; PO 25 mg/kg): 3.74 h
- AUC(0-t) ([1]; IV 2 mg/kg): 0.751 µg·h/mL
- AUC(0-t) ([1]; PO 25 mg/kg): 9.29 µg·h/mL
- bioavailability ([1]; PO 25 mg/kg): 99%

Molecule: palivizumab
- reduction of hospitalization rate caused by RSV infection (RSV infection): 45-55%

Molecule: CS(=O)(=O)CCn1c(CN2C(=O)C3(CCCC3)c3ccncc32)cc2cc(Cl)cnc21 [Example 2-8, 1′-({5-Chloro-1-[2-(methylsulfonyl)ethyl]-1H-pyrrolo[2,3-b]pyridin-2-yl}methyl)spiro[cyclopentane-1,3′-pyrrolo[2,3-c]pyridin]-2′(1′H)-one]
- EC50 (RSV Long strain): 0.919 µM

Molecule: CS(=O)(=O)CCn1c(CN2C(=O)C3(CC3)c3c(Br)cccc32)nc2cc(Cl)ccc21 [Example 34-4, 4′-Bromo-1′-({5-chloro-1-[2-(methylsulfonyl)ethyl]-1H-benzimidazol-2-yl}methyl)spiro[cyclopropane-1,3′-indol]-2′(1′H)-one]
- EC50 (RSV Long strain): 0.205 µM

Molecule: CS(=N)(=O)CCn1c(CN2C(=O)C3(CC3)c3ccncc32)cc2cc(Cl)cnc21 (stereo not shown) [Example 14-4, 1′-({5-Chloro-1-[2-(S-methylsulfonimidoyl)ethyl]-1H-pyrrolo[2,3-b]pyridin-2-yl}methyl)spiro[cyclopropane-1,3′-pyrrolo[2,3-c]pyridin]-2′(1′H)-one]
- EC50 (RSV Long strain): 0.172 µM

Molecule: CS(=O)(=O)CCCn1c(CN2C(=O)C3(CC3)c3ccncc32)nc2cc(Cl)ccc21 [Example 36-1, 1′-({5-Chloro-1-[3-(methylsulfonyl)propyl]-1H-benzimidazol-2-yl}methyl)spiro[cyclopropane-1,3′-pyrrolo[2,3-c]pyridin]-2′(1′H)-one]
- EC50 (RSV Long strain): 0.002 µM

Molecule: CS(=O)(=O)CCCn1c(CN2C(=O)C3(CC3)c3ccncc32)cc2cc(Cl)ccc21 [Example 22-3, 1′-({5-Chloro-1-[3-(methylsulfonyl)propyl]-1H-indol-2-yl}methyl)spiro[cyclopropane-1,3′-pyrrolo[2,3-c]pyridin]-2′(1′H)-one]
- EC50 (RSV Long strain): 0.003 µM

Molecule: CS(=N)(=O)CCn1c(CN2C(=O)C3(CC3)c3ccncc32)cc2cc(Cl)ccc21 (stereo not shown) [Example 14-2, 1′-({5-Chloro-1-[2-(S-methylsulfonimidoyl)ethyl]-1H-indol-2-yl}methyl)spiro[cyclopropane-1,3′-pyrrolo[2,3-c]pyridin]-2′(1′H)-one]
- EC50 (RSV Long strain): 0.007 µM

Molecule: O=C1N(Cc2cc3cc(Cl)ccc3n2CCCO)c2cnccc2C12CC2 [Example 8, 1′-{[5-Chloro-1-(3-hydroxypropyl)-1H-indol-2-yl]methyl}spiro[cyclopropane-1,3′-pyrrolo[2,3-c]pyridin]-2′(1′H)-one]
- EC50 (RSV Long strain): 0.058 µM

Molecule: CS(=O)(=O)CCCn1c(CN2C(=O)C3(CCC3)c3ccncc32)cc2cc(Cl)cnc21 [Example 4-12, 1′-({5-Chloro-1-[3-(methylsulfonyl)propyl]-1H-pyrrolo[2,3-b]pyridin-2-yl}methyl)spiro[cyclobutane-1,3′-pyrrolo[2,3-c]pyridin]-2′(1′H)-one]
- EC50 (RSV Long strain): 0.0568 µM

Molecule: NC(=O)CCn1c(CN2C(=O)C3(CC3)c3ccncc32)cc2cc(Cl)ccc21 [Example 18-1, 3-{5-Chloro-2-[(2′-oxospiro[cyclopropane-1,3′-pyrrolo[2,3-c]pyridin]-1′(2′H)-yl)methyl]-1H-indol-1-yl}propanamide]
- EC50 (RSV Long strain): 0.017 µM
